The test system of this assay is pancreatic cancer. Description: Overall survival of pancreatic cancer patients treated with gemcitabine (reference population, blood taken before treatment). The format is in vivo, Homo sapiens. The following applies: patients treated with gemcitabine who have the genetic pro-metastatic fingerprint. As for the experimental part:
Samples of whole blood from 61 patients, taken before treatment, packaged in PAXgene tubes in dry ice (supplier: LabConnect, United States) were received and stored at −80° C. They were designated “week 0”.
The RNA samples were divided into 2 groups: • M4: corresponding to the patients who received gemcitabine after collection of the reference blood samples, and who died before month 4; • M15: corresponding to the patients who received gemcitabine after collection of the reference blood samples, and were alive after month 15.
An additional pharmacogenomic study was also carried out. Samples of the RNA from blood from 61 patients were taken before any treatment, and they were analysed by RT-PCR.
The patients treated with gemcitabine who have the genetic pro-metastatic fingerprint have a low overall survival rate (OS) (5.0 months).

On to `Nc1ccn([C@@H]2O[C@H](CO)[C@@H](O)C2(F)F)c(=O)n1` [Gemcitabine], for which the overall survival time was determined as 5.0 months.

These data come from US20180105881A1, “METHOD FOR DETERMINING THE SURVIVAL PROGNOSIS OF A PATIENT SUFFERING FROM PANCREATIC CANCER” (ACOBIOM, priority 2014, published 2018).
